Source: US11840686B2, “Modulation of prekallikrein (PKK) expression” (Ionis Pharmaceuticals, Inc., priority 2013, dated 2023)
Strand notation (5' to 3'): a small letter for the sugar, then the base; units joined by * are phosphorothioate-linked, units joined directly phosphodiester-linked; [ ] holds rarer units or linkages, { } end groups; capitals alone tell only the bases. e = 2'-O-(2-methoxyethyl) (MOE); [5mC] = 5-methylcytosine; d = 2'-deoxy (DNA)

Test system: human PKK mRNA
Assay: Antisense inhibition of human PKK mRNA in HepaRG cells, 3,000 nM (Example 1)
Assay type: cell-based
Details: relative to untreated control cells
Summary of the method: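 HepaRG cells, 20,000 per well, were electroporated with 3,000 nM 5-10-5 MOE gapmer (phosphorothioate, 5-methylcytosine). After about 24 h, PKK mRNA was measured by qRT-PCR with primer probe set RTS3454 and normalised to RIBOGREEN total RNA. Values are percent inhibition versus untreated cells.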

[1] = Table 3, HepaRG cells, electroporation with 3,000 nM antisense oligonucleotide, approx. 24 hours, PKK mRNA by RT-PCR (RTS3454)
[2] = Table 4, HepaRG cells, electroporation with 3,000 nM antisense oligonucleotide, approx. 24 hours, PKK mRNA by RT-PCR (RTS3454)
[3] = Table 1, PKK mRNA, HepaRG cells, 3,000 nM, electroporation, ~24 h
[4] = Table 2, PKK mRNA, HepaRG cells, 3,000 nM, electroporation, ~24 h

531088 (eG*eG*eT*eT*eT*dT*dG*dT*dT*dT*dG*dT*dA*dA*dA*eA*eT*eT*eA*eG; antisense) [compound 531088]
% inhibition [1]: 27%

531189 (eA*eG*eG*eT*eG*dT*dT*d[5mC]*dT*dT*dG*d[5mC]*dT*dT*dA*eT*e[5mC]*e[5mC]*eT*e[5mC]; antisense) [compound 531189]
% inhibition [2]: 63%

531117 (antisense eA*e[5mC]*e[5mC]*e[5mC]*eA*dA*dT*dT*dA*dT*dT*dT*dT*dT*dA*eA*eT*eG*eG*e[5mC]) [compound 531117]
% inhibition [1]: 62%

530979 (antisense eG*eG*eT*eT*eA*dA*dA*dA*dG*dG*d[5mC]*dT*dA*dT*dA*eT*e[5mC]*e[5mC]*eA*eG) [compound 530979]
% inhibition [3]: 35%

531053 (antisense eA*eG*e[5mC]*eA*e[5mC]*dA*dG*dA*d[5mC]*d[5mC]*dA*dT*d[5mC]*d[5mC]*dG*eT*eT*eG*eG*eG) [compound 531053]
% inhibition [4]: 49%

531169 (antisense eT*eG*eG*eG*e[5mC]*dT*d[5mC]*dA*d[5mC]*d[5mC]*d[5mC]*d[5mC]*dA*dG*dT*eG*eG*eA*e[5mC]*e[5mC]) [compound 531169]
% inhibition [2]: 54%

531061 (antisense eT*eG*e[5mC]*eT*e[5mC]*d[5mC]*d[5mC]*dT*dG*d[5mC]*dG*dG*dG*d[5mC]*dA*e[5mC]*eA*eG*e[5mC]*e[5mC]) [compound 531061]
% inhibition [4]: 52%

531164 (antisense eT*eT*eA*eA*eA*dT*dA*dT*dA*dA*dA*dG*dA*dG*dA*eT*e[5mC]*e[5mC]*eT*e[5mC]) [compound 531164]
% inhibition [2]: 38%

531131 (antisense eT*eA*eG*eA*eA*dA*dG*dA*dG*dT*dA*dA*dG*d[5mC]*d[5mC]*eT*eT*e[5mC]*eA*e[5mC]) [compound 531131]
% inhibition [1]: 0%

531127 (antisense e[5mC]*eA*eG*eA*eG*d[5mC]*d[5mC]*dT*dT*dG*dA*dT*d[5mC]*dA*dG*eA*eA*eT*eA*eA) [compound 531127]
% inhibition [1]: 12%

530984 (antisense eT*eT*eA*eG*eA*dA*dT*dG*dG*d[5mC]*dA*dG*dG*dG*dT*eT*e[5mC]*eA*eG*eG) [compound 530984]
% inhibition [3]: 25%

531021 (eG*eT*e[5mC]*eT*eG*dA*d[5mC]*dA*dG*dA*dT*dT*dT*dA*dA*eA*eA*eT*eG*e[5mC]; antisense) [compound 531021]
% inhibition [4]: 50%

531062 (antisense e[5mC]*eA*eG*eG*eT*dT*dG*d[5mC]*dT*d[5mC]*d[5mC]*d[5mC]*dT*dG*d[5mC]*eG*eG*eG*e[5mC]*eA) [compound 531062]
% inhibition [4]: 39%

530937 (antisense eT*eA*eA*eG*eT*dT*dG*d[5mC]*dT*dT*dG*d[5mC]*dT*dT*dG*eA*eA*eT*eA*eA) [compound 530937]
% inhibition [3]: 0%

531107 (antisense eT*e[5mC]*eA*eA*e[5mC]*dT*d[5mC]*dA*d[5mC]*dA*d[5mC]*d[5mC]*dT*dG*dA*e[5mC]*e[5mC]*eT*eA*eA) [compound 531107]
% inhibition [1]: 30%

530961 (antisense eT*eT*eG*eG*e[5mC]*dA*dT*dT*d[5mC]*dT*dT*d[5mC]*dA*dA*d[5mC]*eA*e[5mC]*eT*eG*e[5mC]) [compound 530961]
% inhibition [3]: 88%

531099 (eT*eG*eG*eA*eT*dG*dG*dG*dT*dA*dG*dA*dG*dG*d[5mC]*e[5mC]*eT*eT*eT*e[5mC]; antisense) [compound 531099]
% inhibition [1]: 64%

531141 (antisense eT*eG*e[5mC]*eA*eA*dG*dG*d[5mC]*dA*dT*dG*dT*dG*dT*dG*e[5mC]*eA*e[5mC]*eA*eA) [compound 531141]
% inhibition [1]: 47%

531079 (eT*e[5mC]*e[5mC]*eT*e[5mC]*dA*dG*d[5mC]*dA*dG*d[5mC]*dT*d[5mC]*dT*dG*eA*eG*eT*eG*e[5mC]; antisense) [compound 531079]
% inhibition [4]: 58%

531191 (eA*eA*eG*eT*eG*dT*dA*dT*dT*dG*d[5mC]*d[5mC]*dT*dA*dG*eA*eT*eT*eT*e[5mC]; antisense) [compound 531191]
% inhibition [2]: 37%

531075 (e[5mC]*e[5mC]*eA*eT*eG*d[5mC]*dT*dT*dT*dG*d[5mC]*dA*dG*dA*dT*eG*eA*eG*eG*eA; antisense) [compound 531075]
% inhibition [4]: 64%

531006 (eG*e[5mC]*eT*eT*eG*dT*dT*dT*dT*dT*dG*dT*dT*dG*dT*eG*e[5mC]*eA*eG*eA; antisense) [compound 531006]
% inhibition [3]: 49%

531221 (eA*eA*eG*eG*eG*dA*dT*dT*dT*dA*dA*dA*dA*dT*dT*eT*eT*eT*eA*eT; antisense) [compound 531221]
% inhibition [2]: 0%

530951 (antisense e[5mC]*eA*eA*eA*e[5mC]*dA*d[5mC]*d[5mC]*dT*dT*dG*dG*dG*dT*dG*eG*eA*eA*eT*eG) [compound 530951]
% inhibition [3]: 49%

531153 (antisense e[5mC]*eT*eA*eG*eA*dA*dG*d[5mC]*dA*dA*dT*dA*dT*dT*dT*eA*eA*eA*eG*e[5mC]) [compound 531153]
% inhibition [1]: 0%

531160 (antisense eT*eG*eA*eT*eA*dT*d[5mC]*dA*dT*d[5mC]*dA*dT*d[5mC]*d[5mC]*d[5mC]*eA*eA*eT*eG*eA) [compound 531160]
% inhibition [1]: 13%

531129 (antisense eA*eG*e[5mC]*eA*eG*d[5mC]*dT*d[5mC]*dA*d[5mC]*dA*d[5mC]*d[5mC]*d[5mC]*dA*eA*eA*eA*eA*eG) [compound 531129]
% inhibition [1]: 0%

531076 (eA*e[5mC]*eT*e[5mC]*eT*d[5mC]*d[5mC]*dA*dT*dG*d[5mC]*dT*dT*dT*dG*e[5mC]*eA*eG*eA*eT; antisense) [compound 531076]
% inhibition [4]: 68%

531215 (eT*eA*eG*eA*eG*dA*dT*dT*dT*dT*dA*dT*dG*dT*dA*e[5mC]*eT*eT*eG*eG; antisense) [compound 531215]
% inhibition [2]: 63%

531128 (antisense eA*eA*eG*eT*eT*d[5mC]*d[5mC]*dA*d[5mC]*d[5mC]*dT*dT*d[5mC]*dT*dA*eA*e[5mC]*eT*eG*eG) [compound 531128]
% inhibition [1]: 18%

531211 (eT*eT*eG*eA*eT*dG*dT*d[5mC]*dA*dG*d[5mC]*dA*d[5mC]*dT*dG*eT*eT*eG*eA*e[5mC]; antisense) [compound 531211]
% inhibition [2]: 77%

531214 (eT*eT*eT*eT*eT*d[5mC]*dT*dT*dT*dA*dA*dA*dT*dT*dT*eT*eG*e[5mC]*eT*eA; antisense) [compound 531214]
% inhibition [2]: 37%

531147 (antisense e[5mC]*e[5mC]*eA*eT*eT*dA*dT*dT*dT*d[5mC]*d[5mC]*dA*dT*d[5mC]*dA*e[5mC]*e[5mC]*eT*eG*e[5mC]) [compound 531147]
% inhibition [1]: 18%

531140 (antisense eT*e[5mC]*eT*eT*e[5mC]*d[5mC]*dA*dG*dG*d[5mC]*d[5mC]*dA*dA*d[5mC]*d[5mC]*eA*e[5mC]*e[5mC]*eT*eT) [compound 531140]
% inhibition [1]: 22%
